Data as given in patent publication US5045546A, “8-azabicyclo[3.2.1]octylalkylthiazolidines” (Hoechst-Roussel Pharmaceuticals Inc., priority 1990, dated 1991).
Read-outs that look alike come from different tables or passages of the source.

What was measured:
[1] = system: apomorphine induced stereotypy; experiment: inhibition of apomorphine stereotypy assay (potential for extrapyramidal side effects); assay type: in vivo, male Wistar rats; details: rats, drug one hour prior to scoring, apomorphine 1.5 mg/kg s.c.
Method: Potential for undersirable extrapyramidal side effect activity is determined in the inhibition of apomorphine stereotypy assay by a method similar to those described by N. E. Anden, et al., J. Pharma. Pharmacol., 19, 627, (1967), and A. M. Ernst, et al., Psychopharmacologia (Berl.), 10, 316 (1967).
In this assay, groups of male Wistar rats (125-200 grams) are used and food and water are available ad libitum. Drugs are prepared using distilled water and, if insoluble, a suitable surfactant is added. The route of administration may be varied and the dosage volume is 10 ml/kg. For a primary screen, a group size of six is used. Drug is administered one hour prior to scoring and the animals are placed in individual clear plastic cages (24×14×13 cm). The control group receives vehicle. Apomorphine hydrochloride solution is prepared at a concentration of 15 mg/10 ml in a 0.03% ascorbic acid stock solution (30 mg of ascorbic acid in 100 ml of 1% saline) to increase the stability of the apomorphine hydrochloride while in solution. Apomorphine hydrochloride solution is administered at a dose of 1.5 mg/kg subcutaneous (s.c.) with a dosage volume of 1 ml/kg. Fifty minutes after drug dosing, stereotypic behavior is noted. Stereotypic activity is defined as sniffing, licking or chewing behavior that occurs in a repetitive manner and is rated as follows: Constant sniffing, licking or chewing without interruption; the animal is considered protected if this behavior is interrupted.
The percent effectiveness of a drug is determined by the number of animals protected in each group. Antipsychotics displaying little effect in this assay would be expected to show a low propensity to cause undersirable extrapyramidal side effects and/or tardive dyskinesias in mammals (N. C. Moore and S. Gershon, Clinical Neuropharmacology, 12, 167, (1989).
A dose-response is run in the same manner as a primary screen except that a group size of 10 is used and the animals are dosed in a randomized manner. One group receives vehicle. ED50 for stereotypy are calculated by means of probit analysis.
Inhibition of apomorphine induced stereotypy of respresentative 8-azabicyclo[3.2.1]octylalkylthiazolidinones of the present invention and two standards is given in Table II.

[2] = system: apomorphine-induced climbing; experiment: inhibition of apomorphine-induced climbing in mice (climbing mice assay, antipsychotic activity); assay type: in vivo, CK-1 male mice; details: Mus musculus, ip, 0.5 h, read-out: Antipsychotic Activity ED50
Method: The 8-azabicyclo[3.2.1]octylalkylthiazolidnones of the present invention are useful for treating psychoses by virtue of their ability to block apomorphine-induced climbing in mammals.
Antipsychotic activity is determined in the climbing mice assay by a method similar to those described by P. Protais et al., Psychopharmacol., 50,1 (1976) and B. Costall, Eur. J. Pharmacol., 50, 39 (1978).
The subject CK-1 male mice (23-27 grams) are group-housed under standard laboratory conditions. The mice are individually placed in wire mesh stick cages (4"×4"×10") and are allowed one hour for adaptation and exploration of the new environment. Then apomorphine is injected subcutaneously at 1.5 mg/kg, a dose causing climbing in all subjects for 30 minutes. Compounds to be tested for antipsychotic activity are injected intraperitoneally 30 minutes prior to the apomorphine challenge at a screening dose of 10 mg/kg.
For evaluation of climbing, 3 readings are taken at 10, 20 and 30 minutes after apomorphine administration according to the following scale:
4 paws on bottom (no climbing)
2 paws on the wall (rearing)
4 paws on the wall (full climb)
Mice consistently climbing before the injection of apomorphine will be discarded.
With full-developed apomorphine climbing, the animals are hanging onto the cage walls, rather motionless, over longer periods of time. By contrast, climbs due to mere motor stimulation usually only last a few seconds.
The climbing scores are individually totaled (maximal score; 6 per mouse over 3 readings) and the total score of the control group (vehicle intraperitioneally-apomorphine subcutaneously) is set to 100%. ED50 values with 95% confidence limits are calculated by a Linear Regression Analysis. Antipsychotic activity expressed as the ED50 value of representative 8-azabicyclo[3.2.1]octylalkylthiazolidinones as well as two standard antipsychotics are presented in Table I.

## CC1SCN(CCCCN2C3CCC2CC(OC(c2ccccc2)c2ccccc2)C3)C1=O.Cl (centres unmarked) [3-[4-[3-(diphenylmethoxy)-8-azabicyclo[3.2.1]octan-8-yl]-butyl]-5-methyl-4-thiazolidinone hydrochloride]
[1]; dose 20 mg/kg body wt.
  % Inhibition of apomorphine induced stereotypy: 0%
[2]
  ED50: 12.1 mg/kg

## CSc1ccc2c(c1)N(CCC1CCCCN1C)c1ccccc1S2 (centres unmarked) [thioridazine]
[1]; dose 16 mg/kg body wt.
  % Inhibition of apomorphine induced stereotypy: 50%
[2]; climbing mice assay, compound intraperitoneal 30 minutes prior to apomorphine 1.5 mg/kg s.c., Linear Regression Analysis
  ED50: 4.1 mg/kg

## O=C(CCCN1CCC(O)(c2ccc(Cl)cc2)CC1)c1ccc(F)cc1 [haloperidol]
[1]; dose 0.2 mg/kg body wt.
  % Inhibition of apomorphine induced stereotypy: 50%
[2]
  ED50: 0.16 mg/kg

## CC1(C)SCN(CCCCN2C3CCC2CC(OC(c2ccccc2)c2ccccc2)C3)C1=O.Cl (centres unmarked) [3-[4-[3-(diphenylmethoxy)-8-azabicyclo[3.2.1]octan-8-yl]-butyl]-5,5-dimethyl-4-thiazolidinone hydrochloride]
[1]; dose 40 mg/kg body wt.
  % Inhibition of apomorphine induced stereotypy: 17%
[2]
  ED50: 7.73 mg/kg
